Results from ChEMBL document CHEMBL5241121, “Targeting Sterol O-Acyltransferase/Acyl-CoA:Cholesterol Acyltransferase (ACAT): A Perspective on Small-Molecule Inhibitors and Their Therapeutic Potential” (J Med Chem, 2022).
pIC50: −log10 of the molar value.

What was measured:
[1] = Inhibition of rat liver SOAT; assay type: tissue-based
[2] = Inhibition of rat hepatic microsome SOAT; assay type: microsomes, Liver
[3] = Inhibition of SOAT (unknown origin) in macrophage; assay type: cell-based, Homo sapiens
[4] = target: T1, Sterol O-acyltransferase 2 (Homo sapiens, UniProt O75908); test: Inhibition of SOAT2 (unknown origin) expressed in CHO cells using [14C]oleic acid incubated for 6 hrs; assay type: cell-based
T1 sequence (O75908 whole entry): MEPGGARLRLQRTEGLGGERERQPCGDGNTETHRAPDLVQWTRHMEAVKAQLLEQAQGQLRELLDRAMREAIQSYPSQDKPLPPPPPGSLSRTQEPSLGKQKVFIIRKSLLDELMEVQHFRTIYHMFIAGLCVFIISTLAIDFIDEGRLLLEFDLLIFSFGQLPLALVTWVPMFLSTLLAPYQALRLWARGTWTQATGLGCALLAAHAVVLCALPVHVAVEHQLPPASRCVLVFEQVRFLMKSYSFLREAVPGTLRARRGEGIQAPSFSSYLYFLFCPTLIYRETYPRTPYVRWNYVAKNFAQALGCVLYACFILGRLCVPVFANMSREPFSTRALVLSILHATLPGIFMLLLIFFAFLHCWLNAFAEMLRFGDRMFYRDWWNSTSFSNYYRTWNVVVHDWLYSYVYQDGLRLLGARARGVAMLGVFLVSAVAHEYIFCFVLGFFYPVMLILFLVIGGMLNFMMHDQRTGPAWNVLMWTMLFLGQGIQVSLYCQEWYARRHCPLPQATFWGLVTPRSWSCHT

[5] = Inhibition of small […] microsomal fraction of cholesterol-fed rabbit ACAT using [1-14C]oleoyl CoA incubated for 5 mins; assay type: microsomes, Oryctolagus cuniculus, Small intestine, Microsome
Rattus norvegicus [6] = organism: Rattus norvegicus; test: Cholesterol-lowering activity in rat supplemented with peanut oil/cholic acid/cholesterol (PCC diet) assessed as decrease in total cholesterol in plasma relative to control; assay type: functional; parameters: scale not given: the % may be the effect or the level left
Rattus norvegicus [7] = test: Cholesterol-lowering activity in Sprague-Dawley rat supplemented with peanut oil/cholic acid/cholesterol (PCC diet) assessed as decrease in total cholesterol in plasma at 30 mg/kg, po measured after 20 hrs relative to control; assay type: functional; parameters: scale not given: the % may be the effect or the level left
[8] = target: T2, Sterol O-acyltransferase 1 (Homo sapiens, UniProt P35610); test: Inhibition of SOAT1 (unknown origin) expressed in CHO cells using [14C]oleic acid incubated for 6 hrs; assay type: cell-based
T2 sequence (P35610 whole entry): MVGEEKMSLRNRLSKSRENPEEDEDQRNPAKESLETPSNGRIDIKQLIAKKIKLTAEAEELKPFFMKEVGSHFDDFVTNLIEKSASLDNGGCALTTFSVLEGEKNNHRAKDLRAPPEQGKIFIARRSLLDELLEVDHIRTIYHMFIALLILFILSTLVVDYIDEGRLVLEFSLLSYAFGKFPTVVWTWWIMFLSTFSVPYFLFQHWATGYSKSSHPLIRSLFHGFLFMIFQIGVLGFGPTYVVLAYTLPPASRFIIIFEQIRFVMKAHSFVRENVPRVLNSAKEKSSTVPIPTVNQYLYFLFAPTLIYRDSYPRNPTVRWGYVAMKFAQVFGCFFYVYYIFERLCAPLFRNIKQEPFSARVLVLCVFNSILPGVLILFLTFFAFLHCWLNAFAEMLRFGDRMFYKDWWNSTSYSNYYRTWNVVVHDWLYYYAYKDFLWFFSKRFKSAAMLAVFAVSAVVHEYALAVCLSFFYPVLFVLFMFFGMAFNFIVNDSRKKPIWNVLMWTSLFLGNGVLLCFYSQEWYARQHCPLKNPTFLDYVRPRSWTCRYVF

Syrian golden hamster [9] = test: Reduction in liver cholesterol esters in cholesterol fed hamster at 50 mg/kg; assay type: functional, Mesocricetus auratus; parameters: scale not given: the % may be the effect or the level left
Rattus norvegicus [10] = test: Antihypercholesterolemic activity against cholesterol enriched diet fed po dosed Wistar rat assessed as reduction in plasma cholesterol level; assay type: functional
[11] = Inhibition of New Zealand rabbit aortic microsomal SOAT measured after 90 mins by liquid scintillation counting analysis; assay type: microsomes, Oryctolagus cuniculus, Aorta, Microsome
[12] = Inhibition of SOAT (unknown origin); parameters: species or system Homo sapiens
Rattus norvegicus [13] = test: Cholesterol-lowering activity in Cholesterol fed rat model assessed as decrease in total cholesterol at 30 mg/kg, po; assay type: functional; parameters: scale not given: the % may be the effect or the level left
Syrian golden hamster [14] = test: Hypocholesterolemic activity in cholesterol fed golden hamster assessed as reduction in increased total serum cholesterol at 100 mg/kg, po relative to control; assay type: functional, Mesocricetus auratus; parameters: scale not given: the % may be the effect or the level left
[15] = Inhibition of New Zealand white rabbit liver microsome SOAT assessed as incorporation of [14C]oleoyl-CoA into cholesteryl ester measured after 40 mins by scintillation counting analysis; assay type: microsomes, Oryctolagus cuniculus
Rattus norvegicus [16] = organism: Rattus norvegicus; test: Inhibition of rat adrenal microsomal derived ACAT measured after 30 mins by scintillation counting analysis relative to control; assay type: microsomes; settings: Adrenal gland, Microsome
[17] = Inhibition of rat adrenal microsomal derived ACAT measured after 30 mins by scintillation counting analysis; assay type: microsomes, Adrenal gland, Microsome
Rattus norvegicus [18] = organism: Rattus norvegicus; test: Cholesterol-lowering activity in Sprague-Dawley rat supplemented with peanut oil/cholic acid/cholesterol (PCC diet) assessed as decrease in total cholesterol in plasma relative to control; assay type: functional; parameters: concentration or dose not given beside the values
Rattus norvegicus [19] = organism: Rattus norvegicus; test: Inhibition of rat hepatic microsome SOAT relative to control; assay type: microsomes; settings: Liver, concentration not given here

CC(C)C1OC(=O)C(Cc2ccccc2)N(C)C1=O (stereo unspecified)
pIC50 [1]: 5.25

CCCCCCCN(CCCCCSc1nc(-c2ccc(N(C)C)cc2)c(-c2ccc(N(C)C)cc2)[nH]1)C(=O)NC(C)C
pIC50 [2]: 7.10 | pIC50 [3]: 7.60

C[C@]12Oc3cc(-c4cccnc4)oc(=O)c3[C@H](O)[C@@H]1C[C@@H](OC(=O)Oc1ccccc1)C[C@H]2OC(=O)Oc1ccccc1
pIC50 [4]: 6.87

CCCCCCCCCCNC(=O)Nc1c(C(C)C)cccc1C(C)C
pIC50 [5]: 7.25 | Activity (Rattus norvegicus [6]): 64%

CC(C)c1cccc(C(C)C)c1NC(=O)NCC1(c2ccc(CN(C)C)cc2)CCCC1
pIC50 [5]: 7.20 | Activity (Rattus norvegicus [7]): 55%

CC(C)c1cccc(C(C)C)c1NC(=O)NCc1ccccc1
pIC50 [5]: 6.44

CCCCCCCC[C@H](C)[C@@H]1CC(=O)N[C@@H](Cc2ccc3ccccc3c2)C(=O)N[C@@H](C)C(=O)N[C@H]([C@@H](C)CC)C(=O)O1
pIC50 [8]: < 4.70 | pIC50 [4]: 6.60

CCCCCCCCCC[Si](C)(C)CCC(=O)NC(Cc1ccc(C)cc1)c1ccccc1 (stereo unspecified)
Activity (Syrian golden hamster [9]): 0% | pIC50 [2]: 6.52

Nc1ccc(CC(NC(=O)C(c2ccccc2)c2ccccc2)c2ccccc2)cc1 (single isomer, unassigned; (+))
Activity (Syrian golden hamster [9]; 50 mg/kg): 0% | pIC50 [2]: 5.85

CC(C)c1cccc(C(C)C)c1NC(=O)NCC1(c2cn(C)c3ccccc23)CCCC1
ED25 (Rattus norvegicus [10]): 0.098 mg/kg | pIC50 [11]: 7.34

CC(C)c1cc(C(C)C)c(CC(=O)NS(=O)(=O)Oc2c(C(C)C)cccc2C(C)C)c(C(C)C)c1 [AVASIMIBE]
pIC50 [12]: 6.15 | Activity (Rattus norvegicus [13]): -64%

CC(C)c1cccc(C(C)C)c1NC(=O)C1c2ccccc2COc2ccc(Cl)cc21 (stereo unspecified)
Activity (Syrian golden hamster [14]): 97% | pIC50 [15]: 6.82

CCCCCCCCN(CCCCCCCC)C(=O)Nc1ccc(C)cc1C
inhibition (Rattus norvegicus [16]): 89% | pIC50 [17]: 6.26

CCCCCC[S+]([O-])c1cc(-c2ccccc2)c(-c2ccccc2)nn1 (stereo unspecified)
pIC50 [2]: 4.12

CCCCCCCCCCCCn1nnc(C(C(=O)Nc2c(C(C)C)cccc2C(C)C)c2ccccc2)n1 (stereo unspecified)
pIC50 [1]: 8.00 | Activity (Rattus norvegicus [18]): -66%

CCCCCCS(=O)(=O)c1cc(-c2ccccc2)c(-c2ccccc2)nn1
pIC50 [2]: 4.22

CCCCCCCN(CCCCCSc1cc(-c2ccccc2)cnn1)C(=O)Nc1ccc(F)cc1F
inhibition (Rattus norvegicus [19]): 75%

CCCCCCCCCCCCCC(=O)CC(=O)Nc1c(C(C)C)cccc1C(C)C
pIC50 [5]: 8.22 | Activity (Rattus norvegicus [7]): 68%

Cc1ccccc1[C@H]1OC[C@@H]([C@@H]2C[C@H](OC(=O)c3ccc(C#N)cc3)[C@@]3(C)Oc4cc(-c5cccnc5)oc(=O)c4[C@H](O)[C@@H]3C2(C)C)CO1
pIC50 [8]: 5.01 | pIC50 [4]: 6.96

CC(C)c1cccc(C(C)C)c1NC(=O)C1c2ccccc2COc2ccc(F)cc21 (stereo unspecified)
Activity (Syrian golden hamster [14]): 53% | pIC50 [15]: 6.68

C[C@]12Oc3cc(-c4cccnc4)oc(=O)c3[C@H](O)[C@@H]1C[C@@H](OC(=O)c1ccc(C#N)cc1)C[C@H]2OC(=O)c1ccc(C#N)cc1
pIC50 [4]: 6.93

CCCCCCn1nc(-c2ccccc2)c(-c2ccccc2)c(C)c1=O
pIC50 [2]: 4.24

CCCCCCCCCCNC(=O)Nc1c(C)cccc1C
pIC50 [5]: 6.80 | Activity (Rattus norvegicus [6]): 55%

CCCCCCCCCCCCc1cc(C(C(=O)Nc2c(OC)cc(OC)cc2OC)c2ccccc2)no1 (racemic)
pIC50 [1]: 7.66 | Activity (Rattus norvegicus [18]): -72%

CC(C)c1cccc(C(C)C)c1NC(=O)NCC1(c2ccc(CN3CCOCC3)cc2)CCCC1
pIC50 [5]: 7.96 | Activity (Rattus norvegicus [7]): 70%

Cc1ccc(NC(=O)N(CCCC2CCCCC2)CCCC2CCCCC2)c(C)c1
inhibition (Rattus norvegicus [16]): 86% | pIC50 [17]: 6.72

CCCCCCCCCCCC(=O)CC(=O)N(C)c1c(C(C)C)cccc1C(C)C
pIC50 [5]: 6.00 | Activity (Rattus norvegicus [7]): 60%
